Test results reported in a melting point compilation (Tetko et al.; mined from patent text by program, amines drawn as free bases though some values may be those of a salt).

| SMILES | melting point [°C] |
| --- | --- |
| O=C(NCCCn1ccnc1)Nc1cccc(C(F)(F)F)c1 | 105 to 108 |
| CC(C)(C)c1ccccc1N1CCN(C(=O)C2CCC(=O)N2Cc2ccccc2)CC1 (stereo not drawn) | 164 |
| CCOC(=O)C1=C(C)NC(C=O)=C(C(=O)OCC)C1c1ccccc1OC (stereo not drawn) | 111 to 112 |
| CC(=O)SCC(C)NS(=O)(=O)c1c(C)cc(C)cc1C (stereo not drawn) | 123 to 126 |
| CCOC(=O)CCCCc1oc(-n2ccnc2C)nc1-c1ccc(Cl)cc1 | 93 to 94 |
| COc1cc(-c2cc(=O)c3ccc(OCC(O)CNC(C)(C)C)cc3o2)cc(OC)c1OC (stereo not drawn) | 119 to 120 |
| CCCCCCCCCCCCCCCCOc1cc(CO)cc(CO)c1 | 90 |
| COC(=O)c1cc(NC(C)=O)ccc1O | 147 to 148 |
| CCS(=O)(=O)N(C)C1CCCOc2c(C)cc(Cl)cc21 (stereo not drawn) | 141 to 143 |
| O=C1CCCN1c1cccc(-n2cnc3cc(-c4ccoc4)cnc32)c1 | 208 to 210 |
| O=Cc1ccccc1C=C1c2ccccc2CCc2ccccc21 | 199 |
| CCC1(CC(=O)O)OCCc2c1[nH]c1c(C(C)C)cccc21 (stereo not drawn) | 158 to 159 |
| CC1=C(C#N)C(c2ccccc2[N+](=O)[O-])C(C(=O)O)=C(C)N1 (stereo not drawn) | 225 |
| O=C(O)CCCC(=O)CNC(=O)c1csc(NC(=O)NCc2ccccc2)n1 | 169 |
| CN(C)C[C@@H]1C(=O)N[C@H]1SC(c1ccccc1)(c1ccccc1)c1ccccc1 (relative stereo) | 129 to 131 |
| O=C(O)Cc1ccc(Oc2cccc(C(F)(F)F)c2)cc1 | 61 to 63 |
| CN1CCN(c2ncc3c(=O)c(C(=O)O)cn(C4CC4)c3n2)CC1 | 209 to 210 |
| O=C(C=Cc1ccccn1)Nc1nnn[nH]1 | 275 to 276 |
| CCCOc1ccc(S(=O)(=O)NCc2ccncc2)cc1-c1nc2cc3nc[nH]c3cc2c(=O)[nH]1 | 189 to 190 |
| O=C(c1ccc(Cl)cc1)c1cccc(NC(=O)c2ccn3c2CSC3c2cccnc2)c1 (stereo not drawn) | 176 |
| CC(C)NC(=S)N1CCc2[nH]cnc2C1C1CCCCC1 (stereo not drawn) | 218 |
| COc1ccccc1COc1ccc(S(=O)(=O)c2ccc(C)nc2Nc2ccc(OC(F)F)cc2Cl)cc1 | 124 to 125 |
| COc1cc2c(cc1Nc1ncc(Cl)c(N[C@@H]3CCCC[C@H]3NS(C)(=O)=O)n1)CCN(C(=O)C(F)(F)F)CC2 | 98 to 107 |
| CC(C)NCC(O)COc1cccc(-c2nc(C(F)(F)F)c[nH]2)c1 (stereo not drawn) | 162 to 164 |

| SMILES | melting point [°C] |
| --- | --- |
| CCCOc1ccc2c(c1)C(=O)CCO2 | 50 to 52 |
| CCOC(=O)c1cnc2n(c1=O)CCC2 | 59 to 60 |
| CC1(C)COC(c2c(Cl)cc(Cl)cc2-c2ccc(F)cc2)=N1 | 93 to 95 |
| O=C(NCC1(c2ccccc2)CCCC1)N1CCC(Sc2ccc(CCNC[C@H](O)COc3ccc(O)cc3)cc2)CC1 | 132 |
| CC(C)CC(C(=O)O)c1ccc(-c2ccc(C(F)(F)F)cc2)c(OCC2CC2)c1 (stereo not drawn) | 142 to 143 |
| Cc1cccc(C(=O)C2CC2)c1N | 64 |
| CCC1=NNC(C)=C(C(=O)OCc2ccco2)C1c1cccc([N+](=O)[O-])c1 (stereo not drawn) | 152 |
| O=C1C(=O)c2ccccc2C2=C1SCC1(CCN(CCc3ccccc3)CC1)O2 | 117 to 118 |
| CC(=O)Nc1ccc(Cn2c3c(c4cc(F)cc(F)c42)CCCC3CC(=O)O)cc1 (stereo not drawn) | 237 to 239 |
| CC1(C)C(=O)N(C(=O)NCC2CCN(CC3(C(=O)O)CCC3)CC2)c2cc(F)ccc21 | 193 |
| CC1=C([N+](=O)[O-])C(c2ccccc2C(F)(F)F)c2c[nH]nc2N1 (stereo not drawn) | 257 to 258 |
| N#Cc1cn(Cc2ccccc2)nn1 | 78 to 79 |
| NC(=O)C1(c2ccn(C(CC(=O)OCc3ccccc3)C(=O)NC(CO)Cc3ccccc3)c2)C=CC(c2ccccc2)=CC1 (stereo not drawn) | 192 to 194 |
| C[C@@H]([C@@H](CC1CCC(c2ccccc2)CC1)C(=O)N[C@H](C(=O)Nc1nccs1)C(C)(C)C)N(O)C=O (stereo partly drawn) | 213 to 214 |
| Cc1cccc(-c2ccc(-c3cnn(Cc4ccc([N+](=O)[O-])cc4)c(=O)c3-c3ccc(F)cc3)cc2)c1S(=O)(=O)O | 183 to 184 |
| O=C(Cc1ccc(NC(=O)c2cn3c4c(cccc24)CCC3)cc1)NO | 199 to 202 |
| COc1cc(Cc2cnc(N)nc2N)cc(C=Cc2ccccc2)c1OC | 226 |
| CCc1ccc(C2=NC(C)(C(C)C)C(=O)N2CC=CC(=O)O)nc1 (stereo not drawn) | 53 to 58 |
| Oc1ccc(-c2nc(-c3ccc(Cl)cc3)nc(-c3ccc(O)cc3O)n2)c(O)c1 | 232 to 234 |
| Oc1cc(-c2ccco2)c2oc(-c3ccc(O)c(F)c3)nc2c1 | 155 |
| CCCCOCCOc1ccc(-c2ccc(N3CCCC3)c(C(C)=O)c2)cc1 | 87 to 88 |
| Nc1sc2c(c1C(=O)c1ccc(Cl)c3ccccc13)CCC2 | 258 to 260 |
| CC(N)c1ccc2c(c1)CCCN2C(=O)OC(C)(C)C (stereo not drawn) | 73 to 75 |
| COC(=O)C(=O)CC(=O)c1ccc(C2CCCCC2)cc1 | 96 to 98 |
